This is an account of results in ChEMBL document CHEMBL5608166, “Current therapy in amyotrophic lateral sclerosis (ALS): A review on past and future therapeutic strategies” (Eur J Med Chem, 2024).

The assay concerns the target Tau-tubulin kinase 2 (Homo sapiens, UniProt Q6IQ55). Description: Inhibition of TTBK2 (unknown origin).

Tau-tubulin kinase 2, sequence (Q6IQ55 whole entry): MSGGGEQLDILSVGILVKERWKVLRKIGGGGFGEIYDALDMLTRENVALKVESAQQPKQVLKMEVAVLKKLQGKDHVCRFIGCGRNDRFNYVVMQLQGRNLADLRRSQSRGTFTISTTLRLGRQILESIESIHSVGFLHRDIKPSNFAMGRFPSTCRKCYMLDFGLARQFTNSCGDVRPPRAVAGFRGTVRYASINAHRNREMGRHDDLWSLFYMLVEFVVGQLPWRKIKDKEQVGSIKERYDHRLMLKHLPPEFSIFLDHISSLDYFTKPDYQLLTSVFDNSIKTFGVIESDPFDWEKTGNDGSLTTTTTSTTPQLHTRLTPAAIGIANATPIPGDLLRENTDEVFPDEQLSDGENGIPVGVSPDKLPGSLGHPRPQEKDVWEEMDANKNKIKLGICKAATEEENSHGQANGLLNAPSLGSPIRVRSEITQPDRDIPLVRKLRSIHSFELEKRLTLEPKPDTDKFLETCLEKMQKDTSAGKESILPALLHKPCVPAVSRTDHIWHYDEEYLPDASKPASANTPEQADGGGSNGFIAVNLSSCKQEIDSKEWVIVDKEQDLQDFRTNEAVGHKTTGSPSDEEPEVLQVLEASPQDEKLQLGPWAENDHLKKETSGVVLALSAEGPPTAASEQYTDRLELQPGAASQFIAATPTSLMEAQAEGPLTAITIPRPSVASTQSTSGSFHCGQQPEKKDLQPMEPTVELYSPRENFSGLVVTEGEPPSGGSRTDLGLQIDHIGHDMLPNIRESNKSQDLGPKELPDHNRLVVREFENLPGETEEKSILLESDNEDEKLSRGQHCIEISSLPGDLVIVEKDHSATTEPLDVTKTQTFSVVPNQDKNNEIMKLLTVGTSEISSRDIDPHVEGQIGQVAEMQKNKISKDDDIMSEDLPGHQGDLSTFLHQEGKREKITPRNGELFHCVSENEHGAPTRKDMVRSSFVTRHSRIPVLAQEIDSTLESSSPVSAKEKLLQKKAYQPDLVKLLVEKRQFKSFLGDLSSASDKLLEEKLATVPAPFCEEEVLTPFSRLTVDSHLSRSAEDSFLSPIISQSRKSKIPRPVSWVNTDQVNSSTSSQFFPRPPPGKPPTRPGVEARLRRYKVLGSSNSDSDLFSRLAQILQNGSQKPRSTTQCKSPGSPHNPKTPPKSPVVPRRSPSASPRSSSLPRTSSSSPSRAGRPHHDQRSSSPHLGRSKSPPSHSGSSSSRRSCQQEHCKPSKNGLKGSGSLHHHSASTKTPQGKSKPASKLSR

With `CC1(N)CCN(Cc2ccn3ncnc(Nc4cc(O)cc(Br)c4)c23)CC1`, the IC50 (commonly the concentration that inhibits the measured activity by half) is 1.6 nM.
